Measured values from PMC3167814, “Relationships between Membrane Binding, Affinity and Cell Internalization Efficacy of a Cell-Penetrating Peptide: Penetratin as a Case Study” (PLoS ONE, 2011).

Key:
[1] = test system: GAG^neg cell membrane fragments; test: PWR, lipid bilayer composed of cell membrane fragments; type: binding, Chinese Hamster; details: GAG^neg membrane fragments in egg PC planar bilayer; PWR shifts on incremental peptide addition, hyperbolic fit, apparent Kd; repeated 3 times
Excerpt: (§1) Homogenized membranes were obtained by osmotic and mechanical disruption of cells. A method to deposit cell membrane fragments on the PWR cell sample was developed as follows. The deposition of a membrane composed of cell membrane fragments into the PWR resonator led to spectral changes, namely large positive spectral shifts for both p- and s-polarizations relative to the buffer spectrum (Figure 2, panels A and B) indicating the immobilization of a significant amount of mass on the sensor surface. It should be noted that the shifts obtained for p-pol were considerably larger than the ones obtained for s-pol (s/p ratio about 0.7).
(§2) Regarding the direction of the PWR spectral shifts, two types of behavior were observed depending on the membrane composition: 1) in the case of GAG^neg cells, penetratin led to a two phase binding process with negative shifts followed by positive shifts (for both polarizations) which equilibrated after certain concentrations; 2) in the case of WT and SA^neg cells, penetratin led to a single binding process with positive shifts for both polarizations (see panels C and D in Figure 2 for penetratin interaction with WT cell membranes and Table 1 for the direction and magnitude of the spectral shifts). […] Penetratin affinity to lipid bilayers and membrane fragments could be calculated using PWR by measuring the resonance minimum position shifts upon incremental addition of peptide to the cell sample [39]. […]
(§3) The kinetics of penetratin interaction with the membrane was determined by following the shift in the resonance minimum position as a function of time for a peptide concentration slightly above the Kd value. […] Rate constants were determined for the second part of the signal (the resonance angle increase) and varied upon membrane composition (Figure 2 and Table 3). […]
(§4) The sensitivity factor (Sf), a measure of the sensitivity of the instrument for the s- pol relative to p-pol ( [drawing 2] ), necessary to determine the mass and anisotropy axes has been determined, for the prism used in those experiments, to be 1.35 [46].

[2] = test system: WT cell membrane fragments; test: as above; type: binding, Chinese Hamster; details: WT membrane fragments in egg PC planar bilayer; PWR shifts on incremental peptide addition, hyperbolic fit, apparent Kd; repeated 3 times
Excerpt: as §1, §2, §3, §4

[3] = test system: SA^neg cell membrane fragments; test: as above; type: binding, Chinese Hamster; details: SA^neg membrane fragments in egg PC planar bilayer; PWR shifts on incremental peptide addition, hyperbolic fit, apparent Kd; repeated 3 times
Excerpt: as §1, §2, §3, §4

[4] = test system: Wild type Chinese Hamster Ovary CHO-K1 cells (WT)
Description: (§5) As already reported, the quantity or concentration of internalized and membrane-bound penetratin could be differentiated and measured by MALDI mass spectrometry, [33], [34]. […] Using the reported protocol, the amount of internalized penetratin was quantified in one million cells that were incubated with 1 or 10 µM penetratin for one hour. After washing steps, the extracellular membrane-bound peptide was degraded by trypsin digestion, [33], [34] so that only the internalized peptide was quantified. […] The extracellular concentration could not be lowered further because of the lack of sensitivity of the MALDI-MS method for accurate measurements of sub-picomole quantities of penetratin.
(§6) Wild type Chinese Hamster Ovary CHO-K1 cells (WT), xylosetransferase- or GAG-deficient CHO-pgsA745 [59] cells (GAG^neg) and sialic acid deficient CHO-lec2 [60] cells (SA^neg) were cultured in Dulbecco's modified Eagle's medium (DMEM) supplemented with 10% fetal calf serum (FCS), penicillin (100,000 IU/L), streptomycin (100,000 IU/L), and amphotericin B (1 mg/L) in a humidified atmosphere containing 5% CO2 at 37°C.
(§7) Cellular uptake was quantified using the method described by Burlina et al.. In this protocol, the studied peptide bears a tag composed of four glycine residues together with a biotin moiety for purification purposes. After one-hour incubation with the peptide and washing, a protease is added (0.05% trypsin in Tris-HCl 100 mM pH 7.5) in order to detach the cells and to degrade the membrane-bound peptide. This avoids overestimating the quantity of internalized peptide due to the presence of peptides attached to the outer leaflet of the membrane. The cells are then lysed (0.3% Triton) and boiled, and the cell lysate is incubated with streptavidin-coated magnetic beads to extract the peptide from the lysate. For membrane-bound peptide quantification, washings but no protease digestion was done and the cells were directly lysed. The peptides are eluted from the streptavidin-coated magnetic beads with a α-cyano-4-hydroxycinnamic acid matrix and spotted on the MALDI plate. Mass spectrometry is not a quantitative method per se, therefore an internal standard is added to the lysis solution. […] This allows the absolute quantification of internalized and membrane-bound peptide. […] The experiments were repeated at least three times independently.

[5] = test system: GAG-deficient CHO-pgsA745 cells (GAG^neg)
Description: as §5, §6, §7

[6] = test system: sialic acid deficient CHO-lec2 cells (SA^neg)
Description: as §5, §6, §7

[7] = PWR, synthetic lipid model membrane; type: binding; details: hyperbolic fit, apparent Kd, repeated 3 times
Excerpt: To get some insight into the role of the lipid component in the cell surface regarding penetratin interaction, lipid model systems composed of varied lipid composition were used. Both zwitterionic (egg PC), anionic (egg PG -phosphatidylglycerol-and egg PC/DOPG -phosphatidylglycerol/dioleoylphosphatidylglycerol-) and lipids with propensity to form negative membrane curvature (egg PC/DOPE -dioleoylphosphatidylethanolamine-) were chosen in order to understand the role of electrostatic interactions and membrane curvature in the interaction of penetratin with the lipid bilayer. For all the lipid systems, penetratin interaction led to spectral shifts in both the p- and s-polarisation. As in the case of cell membrane fragments studies, presented above, two distinct responses were observed depending on the membrane composition: 1) in the case of egg PC and egg PC/DOPE, a two phase binding process with negative shifts followed by positive shifts (for both polarizations) which equilibrated after certain concentrations were observed; 2) in the case of egg PG, egg PC/POPG (1-palmitoyl-2-oleoyl-sn-glycero-3-phospho-(1′-rac-glycerol)), penetratin led to a single binding process with positive shifts for both polarizations (see Table 1 for the direction and magnitude of the spectral shifts). […] The electrostatic interaction played an important role in penetratin interaction with the membrane, but was not the only relevant factor, the shape of the lipid headgroup and/or the lipid curvature seemed to also play a key role in (this will be further discussed below).
For the membrane interaction where two binding processes were observed, as in the case of egg PC, egg PC/DOPE, the first binding was associated with negative spectral shifts for both p- and s-polarizations, which corresponded mainly to mass changes (90–100%). […] In the case where only one binding event was observed (egg PG and egg PC/DOPG) mass changes again dominated the spectral changes (85 to 91%) (Table 5).
Here, the graphical analysis method was employed.
as §4

[8] = 1 µM extracellular biotin-Gly4-tagged penetratin, one million cells, 1 h incubation, washings, trypsin degradation of membrane-bound peptide, MALDI-TOF MS with deuterated internal standard, repeated at least three times
[9] = 1 µM extracellular, 1 h, from internalized amount provided a cell volume of 1 pL

H-RQIKIWFQNRRMKWKK-NH2 [penetratin, Penetratin, positively charged cell-penetrating peptide derived from the third helix of the homeodomain of Antennapedia]
Kd [1]: 2000 ± 600 nM | Kd [2]: 10 ± 3 nM | Kd [3]: 300 ± 40 nM | internalized peptide quantity [4, 8]: about 0.25 pmole | intracellular penetratin concentration [4, 9]: about 0.25 µM | internalized peptide quantity [5, 8]: about 0.25 pmole | intracellular penetratin concentration [5, 9]: about 0.25 µM | internalized peptide quantity [6, 8]: about 0.25 pmole | intracellular penetratin concentration [6, 9]: about 0.25 µM | Kd ([7]; Egg PC bilayer): 28000 ± 2000 nM | Kd ([7]; Egg PC/DOPE bilayer): 500 ± 10 nM | Kd ([7]; Egg PC/DOPG bilayer): 1400 ± 30 nM | Kd ([7]; Egg PG bilayer): 300 ± 20 nM
